# Legend:
# Type in all cases: functional
# [1] = test system: Amaranthus blitum subsp. oleraceus; experiment: Herbicidal activity against Amaranthus blitum subsp. oleraceus assessed as killing at 2.5 g/a at 25 degC measured after 2 weeks
# Digitaria ciliaris [2] = experiment: Herbicidal activity against Digitaria ciliaris assessed as killing at 2.5 g/a at 25 degC measured after 2 weeks
# [3] = test system: Amaranthus blitum subsp. oleraceus; experiment: Herbicidal activity against Amaranthus blitum subsp. oleraceus assessed as killing at 10 g/a at 25 degC measured after 2 weeks
# Stellaria media [4] = experiment: Herbicidal activity against Stellaria media assessed as killing at 10 g/a at 25 degC measured after 2 weeks
# Kummerowia striata [5] = experiment: Herbicidal activity against Kummerowia striata assessed as killing at 10 g/a at 25 degC measured after 2 weeks
# Setaria viridis [6] = experiment: Herbicidal activity against Setaria viridis (green foxtail) assessed as killing at 10 g/a at 25 degC measured after 2 weeks
# Stellaria media [7] = experiment: Herbicidal activity against Stellaria media assessed as killing at 2.5 g/a at 25 degC measured after 2 weeks
# Setaria viridis [8] = experiment: Herbicidal activity against Setaria viridis (green foxtail) assessed as killing at 2.5 g/a at 25 degC measured after 2 weeks
# Poa annua [9] = experiment: Herbicidal activity against Poa annua assessed as killing at 2.5 g/a at 25 degC measured after 2 weeks
# Poa annua [10] = experiment: Herbicidal activity against Poa annua assessed as killing at 10 g/a at 25 degC measured after 2 weeks
# Kummerowia striata [11] = experiment: Herbicidal activity against Kummerowia striata assessed as killing at 2.5 g/a at 25 degC measured after 2 weeks
# Digitaria ciliaris [12] = experiment: Herbicidal activity against Digitaria ciliaris assessed as killing at 10 g/a at 25 degC measured after 2 weeks
# Pontederia vaginalis [13] = experiment: Herbicidal activity against Monochoria vaginalis assessed as killing at 10 g/a at 25 degC measured after 3 weeks
# Echinochloa oryzicola [14] = experiment: Herbicidal activity against Echinochloa oryzicola assessed as killing at 1 g/a at 25 degC measured after 3 weeks
# Pontederia vaginalis [15] = experiment: Herbicidal activity against Monochoria vaginalis assessed as killing at 1 g/a at 25 degC measured after 3 weeks
# Cyperus difformis [16] = experiment: Herbicidal activity against Cyperus difformis assessed as killing at 10 g/a at 25 degC measured after 3 weeks
# [17] = Herbicidal activity against annual broad-leaf weeds assessed as killing at 10 g/a at 25 degC measured after 3 weeks
# [18] = Herbicidal activity against annual broad-leaf weeds assessed as killing at 1 g/a at 25 degC measured after 3 weeks
# Cyperus difformis [19] = experiment: Herbicidal activity against Cyperus difformis assessed as killing at 1 g/a at 25 degC measured after 3 weeks
# Echinochloa oryzicola [20] = experiment: Herbicidal activity against Echinochloa oryzicola assessed as killing at 10 g/a at 25 degC measured after 3 weeks
# [21] = test system: Schoenoplectiella juncoides; experiment: Herbicidal activity against Schoenoplectiella juncoides assessed as killing at 10 g/a at 25 degC measured after 3 weeks
# [22] = test system: Schoenoplectiella juncoides; experiment: Herbicidal activity against Schoenoplectiella juncoides assessed as killing at 1 g/a at 25 degC measured after 3 weeks
SMILES,Activity (Pontederia vaginalis [13]) [%],Activity (Echinochloa oryzicola [14]) [%],Activity (Pontederia vaginalis [15]) [%],Activity (Cyperus difformis [16]) [%],Activity [17] [%],Activity [18] [%],Activity (Cyperus difformis [19]) [%],Activity (Echinochloa oryzicola [20]) [%],Activity [21] [%],Activity [22] [%],further results
CCc1cccc(CC)c1N(COC)C(=O)CCl [ALACHLOR],–,–,–,–,–,–,–,–,–,–,Activity [1]: 80%; Activity (Digitaria ciliaris [2]): 100%; Activity [3]: 100%; Activity (Stellaria media [4]): 80%; Activity (Kummerowia striata [5]): 80%; Activity (Setaria viridis [6]): 100%; Activity (Stellaria media [7]): 40%; Activity (Setaria viridis [8]): 80%; Activity (Poa annua [9]): 80%; Activity (Poa annua [10]): 100%; Activity (Kummerowia striata [11]): 60%; Activity (Digitaria ciliaris [12]): 100%
COCCN(C(=O)CCl)C(=C(C)C)c1ccccc1C,80,80,0,100,80,80,80,100,100,0,–
COCCN(C(=O)CCl)C(=C(C)C)c1cc(C)ccc1C,100,100,40,100,100,20,80,100,100,80,–
CCc1cccc(C)c1N(C(=O)CCl)C(C)COC (configuration not stated) [METOLACHOR],–,–,–,–,–,–,–,–,–,–,Activity [1]: 100%; Activity (Digitaria ciliaris [2]): 100%; Activity [3]: 80%; Activity (Stellaria media [4]): 60%; Activity (Kummerowia striata [5]): 80%; Activity (Setaria viridis [6]): 100%; Activity (Stellaria media [7]): 60%; Activity (Setaria viridis [8]): 80%; Activity (Poa annua [9]): 80%; Activity (Poa annua [10]): 100%; Activity (Kummerowia striata [11]): 100%; Activity (Digitaria ciliaris [12]): 100%
COCCN(C(=O)CCl)C(=C1CCCCC1)c1ccccc1,100,20,0,100,80,60,0,100,100,0,–
COCCN(C(=O)CCl)C(=C(C)C)c1ccc(Br)s1,100,100,60,100,100,80,80,100,100,60,–
CCC=C(c1ccccc1)N(CCOC)C(=O)CCl,100,60,0,100,80,0,80,100,100,0,–
C#CCOCCN(C(=O)CCl)C(=C(C)C)c1ccccc1,100,100,100,100,100,100,100,100,100,80,–
CCOCCN(C(=O)CCl)C(=C(C)C)c1ccccc1 [PETHOXAMID],100,100,100,100,100,–,100,100,100,100,Activity [1]: 100%; Activity (Digitaria ciliaris [2]): 100%; Activity [3]: 100%; Activity (Stellaria media [4]): 100%; Activity (Kummerowia striata [5]): 80%; Activity (Setaria viridis [6]): 100%; Activity (Stellaria media [7]): 80%; Activity (Setaria viridis [8]): 100%; Activity (Poa annua [9]): 80%; Activity (Poa annua [10]): 100%; Activity (Kummerowia striata [11]): 80%; Activity (Digitaria ciliaris [12]): 100%
COCCN(C(=O)CCl)C(=C(C)C)c1ccc(Oc2ccccc2)cc1,100,100,100,100,100,100,100,100,100,60,–
CCOCCCN(C(=O)CCl)C(=C(C)C)c1ccccc1,100,80,0,100,100,40,60,100,100,40,–
COCCN(C(=O)CCl)C(=C(C)C)c1ccc(C)cc1C,100,60,0,100,80,0,80,100,100,80,–
COCCN(C(=O)CCl)C(=C(C)C)c1cccc(C)c1,100,100,100,100,100,100,100,100,100,100,–
CCC(CC)=C(c1ccccc1)N(CCOC)C(=O)CCl,100,80,0,100,80,0,40,100,100,0,–
COCCN(C(=O)CCl)C(=C(C)C)c1ccccc1,100,100,100,100,100,100,100,100,100,100,Activity [1]: 60%; Activity (Digitaria ciliaris [2]): 100%; Activity [3]: 100%; Activity (Stellaria media [4]): 80%; Activity (Kummerowia striata [5]): 80%; Activity (Setaria viridis [6]): 100%; Activity (Stellaria media [7]): 60%; Activity (Setaria viridis [8]): 80%; Activity (Poa annua [9]): 100%; Activity (Poa annua [10]): 100%; Activity (Kummerowia striata [11]): 80%; Activity (Digitaria ciliaris [12]): 100%
C=CCOCCN(C(=O)CCl)C(=C(C)C)c1ccccc1,100,100,100,100,100,100,100,100,100,100,–
COCCN(C(=O)CCl)C(=C(C)C)c1cccc(Cl)c1,100,80,60,100,100,80,80,100,100,80,–
COCCN(C(=O)CCl)C(=C(C)C)c1ccc(C(C)(C)C)cc1,100,80,60,100,100,80,60,100,100,60,–
CC=C(c1ccccc1)N(CCOC)C(=O)CCl,100,40,0,100,100,0,60,100,100,0,–
